“Also recorded” adds a separate entry of the source.
Experiments:
pregnant rats = test: effect on the duration of pregnancy in rats (intramuscular injections); format: in vivo, rat; conditions: for term (duration of gestation): control 22.33±0.16 days, p <0.01
[1] = dosages used in continuous epidural anesthesia for labor; cited from earlier work
[2] = biological target: T1, voltage-gated calcium channel (ICa) of uterine myocytes (Rattus norvegicus, UniProt P22002); test: whole-cell patch clamp, inward calcium current (ICa) of freshly dissociated pregnant rat uterine myocytes; format: cell-based
T1 construct: Individual myocytes were freshly isolated from 14 to 21-day pregnant uteri; endogenous in cells; host or cells: freshly dissociated longitudinal myometrial myocytes of 14 to 21-day pregnant Sprague-Dawley rats
T1 sequence (P22002 whole entry): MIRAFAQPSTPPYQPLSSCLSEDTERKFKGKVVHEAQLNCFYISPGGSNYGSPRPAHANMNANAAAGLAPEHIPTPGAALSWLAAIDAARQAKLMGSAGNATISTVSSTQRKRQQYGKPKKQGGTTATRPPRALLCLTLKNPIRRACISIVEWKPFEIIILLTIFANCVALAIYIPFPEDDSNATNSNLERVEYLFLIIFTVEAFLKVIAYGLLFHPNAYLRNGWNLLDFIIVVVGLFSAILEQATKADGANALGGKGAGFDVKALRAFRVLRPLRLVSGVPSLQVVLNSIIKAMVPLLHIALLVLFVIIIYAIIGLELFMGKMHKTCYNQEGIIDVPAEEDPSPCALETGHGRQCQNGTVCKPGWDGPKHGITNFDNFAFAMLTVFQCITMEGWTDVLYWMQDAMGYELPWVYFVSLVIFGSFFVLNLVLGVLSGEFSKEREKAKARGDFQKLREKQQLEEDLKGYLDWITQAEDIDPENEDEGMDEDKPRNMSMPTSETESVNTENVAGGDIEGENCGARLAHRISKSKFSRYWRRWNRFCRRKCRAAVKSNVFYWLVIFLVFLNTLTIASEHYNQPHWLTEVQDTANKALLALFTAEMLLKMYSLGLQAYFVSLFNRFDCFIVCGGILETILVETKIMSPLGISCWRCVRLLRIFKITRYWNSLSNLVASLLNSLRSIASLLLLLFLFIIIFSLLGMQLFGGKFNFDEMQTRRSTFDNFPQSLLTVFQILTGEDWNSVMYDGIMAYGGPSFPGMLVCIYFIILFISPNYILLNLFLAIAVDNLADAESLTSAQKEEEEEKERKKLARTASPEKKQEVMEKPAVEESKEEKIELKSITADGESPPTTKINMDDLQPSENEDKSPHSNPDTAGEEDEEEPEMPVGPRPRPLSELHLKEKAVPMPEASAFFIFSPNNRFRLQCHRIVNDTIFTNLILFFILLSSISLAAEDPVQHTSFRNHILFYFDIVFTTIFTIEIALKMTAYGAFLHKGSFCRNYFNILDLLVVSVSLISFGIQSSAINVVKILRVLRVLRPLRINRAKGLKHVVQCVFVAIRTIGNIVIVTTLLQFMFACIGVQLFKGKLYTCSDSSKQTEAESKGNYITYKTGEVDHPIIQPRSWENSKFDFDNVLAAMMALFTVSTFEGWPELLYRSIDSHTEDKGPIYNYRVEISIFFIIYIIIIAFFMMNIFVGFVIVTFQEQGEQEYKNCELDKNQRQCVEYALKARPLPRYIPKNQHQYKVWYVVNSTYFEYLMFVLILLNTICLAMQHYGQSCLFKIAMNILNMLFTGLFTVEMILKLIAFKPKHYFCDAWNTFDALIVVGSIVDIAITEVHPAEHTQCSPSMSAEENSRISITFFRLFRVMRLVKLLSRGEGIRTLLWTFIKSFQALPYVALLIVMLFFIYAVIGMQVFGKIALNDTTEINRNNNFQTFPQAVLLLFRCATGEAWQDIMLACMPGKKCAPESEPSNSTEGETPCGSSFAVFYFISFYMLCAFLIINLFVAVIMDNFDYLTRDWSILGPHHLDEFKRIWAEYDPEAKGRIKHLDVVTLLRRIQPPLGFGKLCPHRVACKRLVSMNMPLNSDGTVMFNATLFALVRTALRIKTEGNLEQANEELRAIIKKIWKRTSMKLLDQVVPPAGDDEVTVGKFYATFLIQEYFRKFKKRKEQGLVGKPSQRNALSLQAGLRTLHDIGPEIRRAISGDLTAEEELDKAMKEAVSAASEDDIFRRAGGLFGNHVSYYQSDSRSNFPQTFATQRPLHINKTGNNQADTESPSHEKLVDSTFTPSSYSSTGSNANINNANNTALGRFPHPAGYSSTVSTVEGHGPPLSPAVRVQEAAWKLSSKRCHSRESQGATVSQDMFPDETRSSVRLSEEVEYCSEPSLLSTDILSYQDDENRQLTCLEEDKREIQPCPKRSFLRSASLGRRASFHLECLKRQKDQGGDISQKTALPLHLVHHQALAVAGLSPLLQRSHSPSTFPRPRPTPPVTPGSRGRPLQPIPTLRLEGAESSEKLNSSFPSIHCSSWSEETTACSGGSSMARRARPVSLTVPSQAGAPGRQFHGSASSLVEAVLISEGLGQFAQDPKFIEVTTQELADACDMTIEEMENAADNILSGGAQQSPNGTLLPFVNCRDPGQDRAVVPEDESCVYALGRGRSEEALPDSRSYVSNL
T1 sequence (P54290 25-944 partner limits assumed): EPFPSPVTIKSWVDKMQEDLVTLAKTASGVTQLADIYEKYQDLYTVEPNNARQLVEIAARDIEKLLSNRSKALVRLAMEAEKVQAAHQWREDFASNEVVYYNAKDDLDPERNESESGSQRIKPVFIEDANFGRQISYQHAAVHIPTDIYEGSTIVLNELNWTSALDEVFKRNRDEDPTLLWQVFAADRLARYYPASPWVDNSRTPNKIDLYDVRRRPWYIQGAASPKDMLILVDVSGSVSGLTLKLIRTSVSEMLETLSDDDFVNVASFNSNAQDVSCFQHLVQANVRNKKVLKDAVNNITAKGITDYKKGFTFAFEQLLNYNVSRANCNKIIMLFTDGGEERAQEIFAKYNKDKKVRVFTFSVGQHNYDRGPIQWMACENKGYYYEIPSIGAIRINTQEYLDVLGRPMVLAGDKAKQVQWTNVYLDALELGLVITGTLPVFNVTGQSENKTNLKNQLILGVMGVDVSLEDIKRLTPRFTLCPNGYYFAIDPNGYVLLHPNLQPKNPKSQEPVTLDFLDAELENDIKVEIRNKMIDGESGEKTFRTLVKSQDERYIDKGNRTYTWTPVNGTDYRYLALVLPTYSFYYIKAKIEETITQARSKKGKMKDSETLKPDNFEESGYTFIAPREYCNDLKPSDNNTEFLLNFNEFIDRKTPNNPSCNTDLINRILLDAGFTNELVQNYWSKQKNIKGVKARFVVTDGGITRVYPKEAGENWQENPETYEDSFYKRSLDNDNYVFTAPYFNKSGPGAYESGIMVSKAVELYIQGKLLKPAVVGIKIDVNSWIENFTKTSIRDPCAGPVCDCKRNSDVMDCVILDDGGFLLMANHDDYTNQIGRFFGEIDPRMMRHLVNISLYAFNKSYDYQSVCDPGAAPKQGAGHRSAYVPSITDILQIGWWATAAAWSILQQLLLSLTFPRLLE
T1 sequence (P54290 945-1091 partner limits assumed): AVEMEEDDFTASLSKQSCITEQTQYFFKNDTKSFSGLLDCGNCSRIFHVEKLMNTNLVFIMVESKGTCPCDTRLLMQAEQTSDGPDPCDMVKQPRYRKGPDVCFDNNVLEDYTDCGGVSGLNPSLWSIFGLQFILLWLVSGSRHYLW
Text: Holding potential, -80 mV; depolarized by 35 ms steps from -40 mV in 10 mV increments to 30 mV. […] Traces shown represent inward currents in response to applied voltage commands, outward K^+ currents having been blocked by the use of Cs^+ -filled electrode. […] (E) Current-voltage (I--V) relations of INa in panels (A--D). Symbols correspond to those under current traces. (F) I--V relations of ICa.
Hollow symbols for I'Ca /ICa in same myocytes used for I'Na /INa values. […] P=I'Na /INa.
All experiments in this study were performed under institutional guidelines for the care and use of laboratory animals (approval #92-055). Rats (Sprague-Dawley) were mated individually in the inventors' laboratory, and the duration of gestation was timed from the morning of the first discovery of cervical plugs. […] Individual myocytes were freshly isolated from 14 to 21-day pregnant uteri. Details of the methods of isolating the myocytes in a near-physiological condition, and associated patch-clamping can be found in other publications^7,15. Briefly, strips of isolated longitudinal myometrium were incubated in collagenase, and then subjected to mild mechanical disruption, until individual myocytes in desired amounts were obtained. For the work described herein, such single freshly dissociated myocytes were studied in the whole-cell configuration of patch-clamping^9.
The bath solution in which the individual myocytes were studied contained (in mM): NaCl, 135; KCl, 5.4; MgCl2, 1; CaCl2, 3; HEPES, 10; and glucose 5. […] The pipette solution contained (in mM): CsCl, 120; EGTA, 1; Na2 ATP, 2; HEPES, 10; K-pyruvate, 5; K-oxaloacetate, 5; and K-succinate, 5. All solutions were adjusted to pH 7.3; all experiments were done at room temperature of ca. 22° C. In the whole-cell mode of recording, rupture of the cell membrane allows access of the pipette solution to the cell interior. The reason for using CsCl rather than KCl is that the Cs^+ effectively blocks outward K^+ currents, and allows the inward currents to be isolated for study. […] The basic properties of the voltage-gated sodium and calcium channels are described in detail in Yoshino et al^7.
The inward currents have been isolated by using a pipette solution containing 120 mM Cs^+.

[3] = system: K+ channels (outward potassium currents) of uterine myocytes; test: whole-cell patch clamp, outward potassium currents of late-pregnant rat uterine myocytes; format: cell-based
fetuses and newborn rats = conditions: rat, in vivo
Text: To avoid possible post-term complications, it was sacrificed.

[4] = biological target: T1, voltage-gated calcium channel (ICa) of uterine myocytes; conditions: 2 μM nisoldipine; cited from earlier work
preterm labor = conditions: cited from earlier work

## CCN(CC)CC(=O)Nc1c(C)cccc1C [lidocaine]
Pregnant rats; 2 mg/kg i.m. twice daily, two rats, both
  day of delivery: delivered on the 23rd day
Pregnant rats; 6 mg/kg i.m. twice daily, one rat, sacrificed
  duration of pregnancy, single rat: continued into the 26th day
Pregnant rats; 2, 4 or 6 mg/kg i.m. twice daily from day-20, 8 rats
  term (duration of gestation): 23.63 ± 0.39 days
Pregnant rats; 4 or 6 mg/kg i.m. twice daily from day-20, 6 rats
  term (duration of gestation): 23.83 ± 0.40 days
Pregnant rats; i.m. lidocaine, 22-day gestation
  difference in duration of gestation versus control: 1.5 days
Pregnant rats; i.m. lidocaine, pregnant rats
  lengthening of the term / prolongation of gestation: 7%
[1]
  serious side-effects on either the mother or the fetus: absence of serious side-effects
[2]; 0.02 mM lidocaine, 5 min (FIG. 3A)
  ICa, effect in words: no detectable difference
[2]; 0.1 mM and 0.2 mM lidocaine, 5 min (FIG. 3B, C)
  ICa, effect in words: slight reductions of the tail currents
[2]; 0.5 mM lidocaine (FIG. 2D)
  Ca2+ currents, effect in words: reduced slightly
[2]; 1 mM lidocaine, 3 min (FIG. 2B)
  ICa and tail-current, effect in words: only slightly reduced
[2]; 0.05 h, read-out: ICa relative to control (pre-lidocaine)
  remaining activity at 1000 µM: 93%
[2]; 0.05 h, read-out: tail ICa remaining relative to recovery state (C)
  remaining activity at 500 µM: 78%
[2]; Ca2+ channels, uterine myocytes
  effects on myometrial K+ or Ca2+ channels at concentrations blocking sodium channels: no effects
[2]; concentrations of lidocaine up to 0.5 mM (FIG. 4)
  effect on ICa, in words: very little effect
[2]; summary of the examples
  effect on coexisting voltage-gated calcium channels, summary in words: very little effect
[3]; K+ channels, uterine myocytes
  effects on myometrial K+ or Ca2+ channels at concentrations blocking sodium channels: no effects
[3]; summary of the examples
  effect on coexisting potassium channels, summary in words: very little effect
[3]; up to 0.5 mM lidocaine, 5 min, late-pregnant uteri (FIG. 1)
  effect on outward K+ current: insignificant effects; also recorded: rather minor
Fetuses and newborn rats
  motor activities of fetuses at birth or newborn several hours after birth: no discernable differences
Fetuses and newborn rats; 6 mg/kg
  condition of fetuses at autopsy: healthy and indistinguishable from those of control newborns, except for their larger sizes

## COC(=O)C1=C(C)NC(C)=C(C(=O)OCC(C)C)C1c1ccccc1[N+](=O)[O-] (stereo not shown) [nisoldipine]
[4]
  block of Ca2+ current: blocked

## CC(NCCc1ccc(O)cc1)C(O)c1ccc(O)cc1 (stereo not shown) [ritodrine]
Preterm labor
  duration of effectiveness in preterm labor: effective for only a few days
  effect on pregnancy outcome: does not affect the pregnancy outcome
  side-effects: can produce cardiovascular side-effects in some recipients

— US5504116A (Research Foundation of State University of New York, priority 1994, dated 1996)
